In US9205137B2, “Maturation of gastrointestinal tract” (ANARA AB, priority 2010, dated 2015):

How the values were obtained:
[1] = system: suckling rats; assay: Set I: intestinal morphology of distal SI, Example 3; format: in vivo, Rattus norvegicus; conditions: distal part of SI, in words
Experimental: All samples collected for histology were fixed with Bouin's solution for 24 hours and then stored in 70% ethanol, dehydrated, embedded into the paraffin and then cut into sections with 5 μm thickness. The tissue sections were transferred onto the slides, rehydrated and stained with H&E according to the standard technique. After mounting under cover slips samples were examined using light microscopy to estimate ratio between total length of the villus and length of the adult type enterocytes using ImageJ program.

[2] = system: suckling rats; assay: Set I: brush-border disaccharidase activity in proximal SI, Example 3; format: in vivo, Rattus norvegicus; conditions: proximal part of SI, in words (FIG. 5)
Experimental: The proximal samples of the SI were de-frozen and weighted and then homogenized with 9 parts of 0.9% NaCl (9 w/v). The homogenates (50 μl diluted samples) were incubated with the appropriate disaccharide (50 μl of 0.056M sucrose, maltose and lactose) for 1 hour at 37° C. After this, the liberated glucose was determined by adding glucose oxidase reagent (Sigma Chemicals), and incubated for 30 minutes. Then samples were transferred into the 96-well plate in triplication and the absorbance was measured at 450 nm. To measure the protein contents of the homogenates, Lowry method, was used, where BSA (Bovine Serum Albumin) was used as a standard. The results are presented as specific activity units per mg of protein (u/mg).

[3] = system: suckling rats; assay: Papain vs microbial protease: body and organ weight, Example 8; format: in vivo, Rattus norvegicus
Text: (§1) The litter size for each dam was limited to 12 or 13 pups, to reduce variability.
(§2) Suckling pups were divided into 3 groups depending on the treatments; microbial protease as a positive control, water as negative control and enzyme from papaya fruit (papain) (in total; protease=7, papain=8, control=7). The enzymes are available in the market in form of powders and were resolved in distilled water prior to stomach feeding during 14-16 d of age. The administered dose for each enzyme was 10000 USP/animal. The volume of administered enzymes and water (for control groups) was 0.01 ml/g b.wt. Prior to the feeding procedure, the pups were weighed. […] Three hours later, the pups were anaesthetized and organs were dissected out for analyses.

[4] = system: suckling rats; assay: Papain vs microbial protease: macromolecule absorption (BSA, BIgG in plasma), Example 8; format: in vivo, Rattus norvegicus; conditions: day 17, 3 hours after feeding, in words (FIG. 14)
Text: as §1, §2

[5] = system: suckling piglets; assay: Suckling pig model II: marker molecules absorption in vivo after microbial protease, Experiment 10; conditions: protease treated piglets vs control
Experimental: All piglets were kept with sow until the weaning day. Piglets from 5-6 litters divided into 2 groups and treated with microbial protease (Sigma) (enz group) or water (cont) (n=28 per group), total 56. The dose of enzymes was 60 mg/ml with activity 1000 USP per 1 mg, the administration volume was 4 ml/kg b. wt, the frequency of administration was every second day (ones a day). Treatment via gavage feeding was started at 8 d of age and was done 3 times, (i.e. 8, 10, 12 d of life).
Separate piglets (6 enzyme treated and 6 control pigs) were fed with marker molecule solution (Bovine serum albumin (BSA) in concentration 125 mg/ml and sodium fluorescein (NaF) in concentration 2.5 mg/ml; the administration volume was 4 ml/kg b.wt) at age 14 d of life and 27 d of life (the weaning day). Blood was collected at 0, […], 1, 2, 4, 8, and 24 hours after marker-cocktail feeding.

[6] = 10000 USP/animal, days 14-16, day 17

Substance: Proteinase from Aspergillus melleus [Protease]
- replacement of vacuolated enterocytes by adult type enterocytes [1]: all of the vacuolated enterocytes were replaced with adult type enterocytes
- lactase activity [2]: decreased
- maltase activity [2]: significantly increased
- sucrase activity [2]: significantly increased
- Body weight [3, 6]: 34.8 ± 3.31 gr
- Cecum [3, 6]: 2.89 ± 0.47 mg/g BW
- Distal SI [3, 6]: 15.2 ± 2.3 mg/g BW
- Liver [3, 6]: 32.22 ± 1.37 mg/g BW
- Pncrease [3, 6]: 3.87 ± 0.34 mg/g BW
- Proxima SI [3, 6]: 20.24 ± 2.37 mg/g BW
- SI length [3, 6]: 1.59 ± 0.18 cm/g BW
- Spleen [3, 6]: 3.18 ± 0.23 mg/g BW
- Stomach [3, 6]: 6.71 ± 0.41 mg/g BW
- Thymus [3, 6]: 4.95 ± 0.93 mg/g BW
- effect on body growth ([3]; dose 10 000 USP, days 14 to 17, in words (FIG. 12)): No effect
- uptake of macromolecules, BIgG absorption [4]: significantly lower
- intestinal permeability for BSA ([5]; in words (FIG. 20A)): decreased intestinal permeability
- intestinal permeability for NaF ([5]; in words (FIG. 20B)): decreased intestinal permeability
